Experimental data from the supplement of paper PMC8633005.

Columns and labels:
Assay in all cases: drug sensitivity score (DSS) (DSS (unitless, 0-50 scale)); higher = more sensitive (stronger viability inhibition); extreme values may be limits of the assay
Settings in all cases: 72 h; culture: 2D
WM165 = system: WM165
Method in brief: (§1)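 Patient-derived melanoma cultures and melanoma cell lines were grown in 2D in 384-well plates with a 527-compound oncology library at five concentrations spanning a 10,000-fold range, with 1000–1500 cells per well for the cultures. CellTiter-Glo luminescence gave viability after 72 h at 37 °C. The drug sensitivity score is a modified area-under-curve measure derived from dose-response curves fitted in the in-house Breeze software.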

WM852 = system: WM852
Method in brief: as §1

SK-MEL-28 = system: SK-MEL-28
Method in brief: as §1

SK-MEL-2 = system: SK-MEL-2
Method in brief: as §1

FM-MEL-3 = system: FM-MEL-3
Method in brief: as §1

Bowes = system: Bowes
Method in brief: as §1

FM-MEL-6 = system: FM-MEL-6
Method in brief: as §1

FM-MEL-2 = system: FM-MEL-2
Method in brief: as §1

Compound | drug sensitivity score (WM165) | drug sensitivity score (WM852) | drug sensitivity score (SK-MEL-28) | drug sensitivity score (SK-MEL-2) | drug sensitivity score (FM-MEL-3) | drug sensitivity score (Bowes) | drug sensitivity score (FM-MEL-6) | drug sensitivity score (FM-MEL-2)
COc1cc(Nc2ncc(F)c(Nc3ccc4c(n3)NC(=O)C(C)(C)O4)n2)cc(OC)c1OC [Tamatinib] | 0.9 | 0 | 0 | 0 | 2.7 | 1.3 | 0 | 5.5
CC/C(=C(\c1ccccc1)c1ccc(OCCN(C)C)cc1)c1ccccc1 [Tamoxifen] | 3.8 | 2.3 | 2.4 | 0 | 5.6 | 0 | 4.4 | 3.7
COc1cc2c(N3CCN(C(=O)Nc4ccc(OC(C)C)cc4)CC3)ncnc2cc1OCCCN1CCCCC1 [Tandutinib] | 0 | 0 | 0 | 0 | 0 | 0 | 0 | 0
O[C@H]1CC[C@H](Nc2ncc3nc(Nc4c(F)cc(F)cc4F)n([C@H]4CCOC4)c3n2)CC1 [Tanzisertib] | 0.1 | 0 | 0.8 | 0 | 0.1 | 0 | 0 | 0
C[C@@H](C(=O)O)c1ccc(-c2ccccc2)c(F)c1 [Tarenflurbil] | 0 | 0 | 0 | 0 | 0 | 0 | 0 | 0
Cc1nc(-c2cn3c(n2)-c2ccc(-c4cnn(C(C)(C)C(N)=O)c4)cc2OCC3)n(C(C)C)n1 [Taselisib] | 4.2 | 3.5 | 5.6 | 0.2 | 4.7 | 2.8 | 6.6 | 7.4
COc1cccc2c1c(O)c(C(=O)N(C)c1ccc(C(F)(F)F)cc1)c(=O)n2C [Tasquinimod] | 0 | 0 | 0 | 0 | 0.2 | 0 | 0.4 | 0.9
CCN(c1cc(-c2ccc(CN3CCOCC3)cc2)cc(C(=O)NCc2c(C)cc(C)[nH]c2=O)c1C)C1CCOCC1 [Tazemetostat] | 0 | 0 | 0 | 0 | 0 | 1.5 | 1.3 | 0
CNC(=O)c1cc(COc2nnc(Nc3ccc(Cl)cc3)c3ccoc23)ccn1 [Telatinib] | 0 | 0.3 | 0 | 0 | 0 | 0 | 0.1 | 0
Cn1nnc2c(C(N)=O)ncn2c1=O [Temozolomide] | 0 | 0 | 0 | 0 | 0 | 0 | 0 | 0
CO[C@H]1C[C@@H]2CC[C@@H](C)[C@@](O)(O2)C(=O)C(=O)N2CCCC[C@H]2C(=O)O[C@H]([C@H](C)C[C@@H]2CC[C@@H](OC(=O)C(C)(CO)CO)[C@H](OC)C2)CC(=O)[C@H](C)/C=C(\C)[C@@H](O)[C@@H](OC)C(=O)[C@H](C)C[C@H](C)/C=C/C=C/C=C/1C [Temsirolimus] | 6 | 0 | 2.5 | 0 | 0 | 0 | 4.4 | 4
COc1cc([C@@H]2c3cc4c(cc3[C@@H](O[C@@H]3O[C@@H]5CO[C@@H](c6cccs6)O[C@H]5[C@H](O)[C@H]3O)[C@H]3COC(=O)[C@H]23)OCO4)cc(OC)c1O [Teniposide] | 0 | 0 | 0 | 0 | 0 | 0 | 0 | 0
CN1CCC(COc2cnc(-c3cccc(Cn4nc(-c5cccc(C#N)c5)ccc4=O)c3)nc2)CC1 [Tepotinib] | 0 | 0 | 0 | 0 | 0 | 0 | 0 | 0
COc1cc2c(Nc3ccc(Cl)c(Cl)c3F)ncnc2cc1OC[C@@H]1C[C@@H]2CN(C)C[C@@H]2C1 [Tesevatinib] | 0.1 | 0 | 0.1 | 0 | 0.8 | 1.8 | 0.3 | 0.1
O=C1CCC(N2C(=O)c3ccccc3C2=O)C(=O)N1 (stereo not drawn) [Thalidomide] | 0 | 0 | 0 | 0 | 0 | 0 | 0 | 0
Nc1nc2[nH]cnc2c(=S)[nH]1 [Thioguanine] | 12.8 | 6.8 | 4.3 | 3.5 | 0 | 8.5 | 2.6 | 5.4
O=c1sn(-c2cccc3ccccc23)c(=O)n1Cc1ccccc1 [Tideglusib] | 0 | 0 | 0 | 0 | 0 | 0 | 0 | 0
Cn1cncc1[C@@](N)(c1ccc(Cl)cc1)c1ccc2c(c1)c(-c1cccc(Cl)c1)cc(=O)n2C [Tipifarnib] | 10.4 | 3.4 | 5 | 3.6 | 11.2 | 21.1 | 6.2 | 7.4
CC#CC(=O)N1CC[C@@H](n2c(=O)n(-c3ccc(Oc4ccccc4)cc3)c3c(N)ncnc32)C1 [Tirabrutinib] | 0 | 0 | 0 | 0 | 0 | 2 | 0 | 0
O=C1NC(=O)[C@@H](c2cn3c4c(cccc24)CCC3)[C@@H]1c1c[nH]c2ccccc12 [Tivantinib] | 3.1 | 3.1 | 2.1 | 3.8 | 2.3 | 3.6 | 3.2 | 1.9
COc1cc2nccc(Oc3ccc(NC(=O)Nc4cc(C)on4)c(Cl)c3)c2cc1OC [Tivozanib] | 3.1 | 1.1 | 3.1 | 0 | 4.8 | 2.8 | 0.5 | 3.4
